In ChEMBL document CHEMBL3856189, “Synthesis of novel diterpenoid analogs with in-vivo antitumor activity” (Eur J Med Chem, 2016):

How the values were obtained:
[1] = Antiproliferative activity against human MDA-MB-231 cells after 96 hrs by SRB assay; assay type: functional, cell-based; conditions: MDA-MB-231, 96 h
[2] = Antiproliferative activity against human MCF7 cells after 96 hrs by SRB assay; assay type: functional, cell-based; conditions: MCF7, 96 h
[3] = Antiproliferative activity against human T47D cells after 96 hrs by SRB assay; assay type: functional, cell-based
[4] = Antiproliferative activity against human PC3 cells after 96 hrs by SRB assay; assay type: functional, cell-based; conditions: PC-3, 96 h
[5] = Antiproliferative activity against human DU145 cells after 96 hrs by SRB assay; assay type: functional, cell-based; conditions: DU-145, 96 h
[6] = Antiproliferative activity against human HCT116 cells after 96 hrs by SRB assay; assay type: functional, cell-based; conditions: HCT-116, 96 h
[7] = Antiproliferative activity against human HT-29 cells after 96 hrs by SRB assay; assay type: functional, cell-based; conditions: HT-29, 96 h
[8] = Antiproliferative activity against human HL60 cells after 96 hrs by SRB assay; assay type: functional, cell-based; conditions: HL-60, 96 h
[9] = Antiproliferative activity against HAF cells after 96 hrs by SRB assay; assay type: cell-based; conditions: Homo sapiens
[10] = Selectivity index, ratio of IC50 for HAF cells to IC50 for human MDA-MB-231 cells; assay type: functional
MCF7 = test: Selectivity index, ratio of IC50 for HAF cells to IC50 for human MCF7 cells; assay type: functional
T47D [11] = test: Selectivity index, ratio of IC50 for HAF cells to IC50 for human T47D cells; assay type: functional
PC-3 = test: Selectivity index, ratio of IC50 for HAF cells to IC50 for human PC3 cells; assay type: functional
DU-145 = test: Selectivity index, ratio of IC50 for HAF cells to IC50 for human DU145 cells; assay type: functional
HCT-116 = test: Selectivity index, ratio of IC50 for HAF cells to IC50 for human HCT116 cells; assay type: functional
[12] = Selectivity index, ratio of IC50 for HAF cells to IC50 for human HT-29 cells; assay type: functional
HL-60 = test: Selectivity index, ratio of IC50 for HAF cells to IC50 for human HL60 cells; assay type: functional
[13] = (§1) Inhibition of colony formation in human T47D cells after 7 days by crystal violet staining based assay; assay type: functional, cell-based; conditions: 168 h
T47D [14] = test: as §1; assay type: functional, cell-based
[15] = (§2) Antimigratory activity in human T47D cells assessed as inhibition of cell migration after 12 hrs by crystal violet staining based transwell migration assay; assay type: functional
T47D [16] = test: as §2; assay type: functional
T47D [17] = test: Induction of apoptosis in human T47D cells assessed as early apoptotic cells at 20 uM after 48 hrs by Annexin V-FITC/propidium iodide staining based flow cytometry (reference value: 3.79 %); assay type: functional
T47D [18] = test: Induction of apoptosis in human T47D cells assessed as late apoptotic cells at 20 uM after 48 hrs by Annexin V-FITC/propidium iodide staining based flow cytometry (reference value: 3.04 %); assay type: functional
T47D [19] = test: Induction of apoptosis in human T47D cells assessed as early apoptotic cells at 40 uM after 48 hrs by Annexin V-FITC/propidium iodide staining based flow cytometry (reference value: 3.79 %); assay type: functional
T47D [20] = test: Induction of apoptosis in human T47D cells assessed as late apoptotic cells at 40 uM after 48 hrs by Annexin V-FITC/propidium iodide staining based flow cytometry (reference value: 3.04 %); assay type: functional
T47D [21] = test: Induction of apoptosis in human T47D cells assessed as early apoptotic cells at 80 uM after 48 hrs by Annexin V-FITC/propidium iodide staining based flow cytometry (reference value: 3.79 %); assay type: functional
T47D [22] = test: Induction of apoptosis in human T47D cells assessed as late apoptotic cells at 80 uM after 48 hrs by Annexin V-FITC/propidium iodide staining based flow cytometry (reference value: 3.04 %); assay type: functional
T47D [23] = test: Induction of apoptosis in human T47D cells assessed as early apoptotic cells at 5 uM after 48 hrs by Annexin V-FITC/propidium iodide staining based flow cytometry (reference value: 1.75 %); assay type: functional
T47D [24] = test: Induction of apoptosis in human T47D cells assessed as late apoptotic cells at 5 uM after 48 hrs by Annexin V-FITC/propidium iodide staining based flow cytometry (reference value: 2.42 %); assay type: functional
T47D [25] = test: Induction of apoptosis in human T47D cells assessed as early apoptotic cells at 10 uM after 48 hrs by Annexin V-FITC/propidium iodide staining based flow cytometry (reference value: 1.75 %); assay type: functional
T47D [26] = test: Induction of apoptosis in human T47D cells assessed as late apoptotic cells at 10 uM after 48 hrs by Annexin V-FITC/propidium iodide staining based flow cytometry (reference value: 2.42 %); assay type: functional
T47D [27] = test: Induction of apoptosis in human T47D cells assessed as early apoptotic cells at 20 uM after 48 hrs by Annexin V-FITC/propidium iodide staining based flow cytometry (reference value: 1.75 %); assay type: functional
T47D [28] = test: Induction of apoptosis in human T47D cells assessed as late apoptotic cells at 20 uM after 48 hrs by Annexin V-FITC/propidium iodide staining based flow cytometry (reference value: 2.42 %); assay type: functional
[29] = Antitumor activity against human T47D cells xenografted in nude mouse assessed as tumor weight at 5 mg/kg/day, ip administered daily for 18 days measured every 3 days during compound dosing (reference value: 882 +/- 149 mg); assay type: functional
[30] = Antitumor activity against human T47D cells xenografted in nude mouse assessed as tumor volume at 5 mg/kg/day, ip administered daily for 18 days measured every 3 days during compound dosing (reference value: 1220 +/- 127 mm3); assay type: functional
Mus musculus [31] = test: Toxicity in nude mouse xenografted with human T47D cells assessed as body weight loss at 5 mg/kg/day, ip administered daily for 18 days measured every 3 days during compound dosing; assay type: organism-based; conditions: in vivo
Mus musculus [32] = test: Toxicity in nude mouse xenografted with human T47D cells assessed as diarrhoea at 5 mg/kg/day, ip administered daily for 18 days; assay type: organism-based; conditions: in vivo, 432 h
Mus musculus [33] = test: Toxicity in nude mouse xenografted with human T47D cells assessed as organ damage at 5 mg/kg/day, ip administered daily for 18 days; assay type: organism-based; conditions: in vivo, 432 h
Mus musculus [34] = test: Acute toxicity in nude mouse xenografted with human T47D cells assessed as mortality at 5 to 40 mg/kg/day, ip administered daily for 18 days measured on day 18 post last dose; assay type: organism-based; conditions: in vivo, 432 h

SMILES: COc1cc2c(cc1C(=O)Nc1ccccc1)CC[C@H]1C(C)(C)[C@@H](O)CC[C@]21C
- IC50 [1]: 4490 nM
- IC50 [2]: 4800 nM
- IC50 [3]: 840 nM
- IC50 [4]: 2510 nM
- IC50 [5]: 10600 nM
- IC50 [6]: 1540 nM
- IC50 [7]: 2450 nM
- IC50 [8]: 12400 nM
- IC50 [9]: 9460 nM
- Ratio IC50 [10]: 1.9
- Ratio IC50 (MCF7): 1.9
- Ratio IC50 (T47D [11]): 1.9
- Ratio IC50 (PC-3): 1.9
- Ratio IC50 (DU-145): 1.9
- Ratio IC50 (HCT-116): 1.9
- Ratio IC50 [12]: 1.9
- Ratio IC50 (HL-60): 1.9
- EC50 [13]: 987 nM
- Activity (T47D [14]): Dose-dependent effect
- EC50 [15]: 37700 nM
- Activity (T47D [16]): Dose-dependent effect
- Activity (T47D [17]): 2.25%
- Activity (T47D [18]): 3.54%
- Activity (T47D [19]): 3.33%
- Activity (T47D [20]): 6.97%
- Activity (T47D [21]): 4.7%
- Activity (T47D [22]): 7.72%

SMILES: COc1cc2c(cc1C(=O)N(C)c1ccc(F)cc1)CC[C@H]1C(C)(C)[C@@H](O)CC[C@]21C
- IC50 [1]: > 25000 nM
- IC50 [2]: > 25000 nM
- IC50 [3]: > 25000 nM

SMILES: COc1ccc(NC(=O)c2cc3c(cc2OC)[C@@]2(C)CC[C@H](O)C(C)(C)[C@@H]2CC3)cc1
- IC50 [1]: 410 nM
- IC50 [2]: 280 nM
- IC50 [3]: 30 nM
- IC50 [4]: 500 nM
- IC50 [5]: 540 nM
- IC50 [6]: 510 nM
- IC50 [7]: 520 nM
- IC50 [8]: 410 nM
- IC50 [9]: 4010 nM
- Ratio IC50 [10]: 10
- Ratio IC50 (MCF7): 10
- Ratio IC50 (T47D [11]): 10
- Ratio IC50 (PC-3): 10
- Ratio IC50 (DU-145): 10
- Ratio IC50 (HCT-116): 10
- Ratio IC50 [12]: 10
- Ratio IC50 (HL-60): 10

SMILES: COc1cc2c(cc1C(=O)Nc1ccccc1C)CC[C@H]1C(C)(C)[C@@H](O)CC[C@]21C
- IC50 [1]: 2300 nM
- IC50 [2]: 3560 nM
- IC50 [3]: 510 nM

SMILES: COc1cc2c(cc1C(=O)Oc1ccccc1)CC[C@H]1C(C)(C)[C@@H](O)CC[C@]21C
- IC50 [1]: > 25000 nM
- IC50 [2]: > 25000 nM
- IC50 [3]: > 25000 nM

SMILES: COc1ccc(N(C)C(=O)c2cc3c(cc2OC)[C@@]2(C)CC[C@H](O)C(C)(C)[C@@H]2CC3)cc1
- IC50 [1]: > 25000 nM
- IC50 [2]: > 25000 nM
- IC50 [3]: 12700 nM

SMILES: COc1cc2c(cc1C(=O)Nc1ccc(F)cc1)CC[C@H]1C(C)(C)[C@@H](O)CC[C@]21C
- IC50 [1]: 2400 nM
- IC50 [2]: 820 nM
- IC50 [3]: 40 nM

SMILES: COc1ccc(OC(=O)c2cc3c(cc2OC)[C@@]2(C)CC[C@H](O)C(C)(C)[C@@H]2CC3)cc1
- IC50 [1]: 14300 nM
- IC50 [2]: > 25000 nM
- IC50 [3]: 5350 nM

SMILES: COc1cc2c(cc1C(=O)NC1CCCCC1)CC[C@H]1C(C)(C)[C@@H](O)CC[C@]21C
- IC50 [1]: > 25000 nM
- IC50 [2]: > 25000 nM
- IC50 [3]: 10900 nM

SMILES: COc1cc([C@@H]2c3cc4c(cc3[C@H](O)[C@H]3COC(=O)[C@H]23)OCO4)cc(OC)c1OC [PODOFILOX]
- IC50 [1]: 120 nM
- IC50 [2]: 10 nM
- IC50 [3]: 250 nM
- IC50 [4]: 50 nM
- IC50 [5]: 10 nM
- IC50 [6]: 20 nM
- IC50 [7]: 20 nM
- IC50 [8]: 480 nM
- IC50 [9]: 90 nM
- Ratio IC50 [10]: 0.8
- Ratio IC50 (MCF7): 0.8
- Ratio IC50 (T47D [11]): 0.8
- Ratio IC50 (PC-3): 0.8
- Ratio IC50 (DU-145): 0.8
- Ratio IC50 (HCT-116): 0.8
- Ratio IC50 [12]: 0.8
- Ratio IC50 (HL-60): 0.8
- EC50 [13]: 2.97 nM
- Activity (T47D [14]): Dose-dependent effect
- EC50 [15]: 8980 nM
- Activity (T47D [16]): Dose-dependent effect
- Activity (T47D [23]): 4.97%
- Activity (T47D [24]): 4.45%
- Activity (T47D [25]): 7.47%
- Activity (T47D [26]): 6.98%
- Activity (T47D [27]): 11.86%
- Activity (T47D [28]): 7.21%
- Activity [29]: 200 mg
- Activity [30]: 407 mm3
- Activity (Mus musculus [31]): Toxic
- Activity (Mus musculus [32]): Toxic
- Activity (Mus musculus [33]): Toxic
- Activity (Mus musculus [34]): Toxic

SMILES: COc1cc2c(cc1C(=O)Nc1ccc(N)cc1)CC[C@H]1C(C)(C)[C@@H](O)CC[C@]21C
- IC50 [1]: 3090 nM
- IC50 [2]: 5210 nM
- IC50 [3]: 230 nM

SMILES: COc1cc2c(cc1C(=O)Nc1ccc(O)cc1)CC[C@H]1C(C)(C)[C@@H](O)CC[C@]21C
- IC50 [1]: 1900 nM
- IC50 [2]: 3070 nM
- IC50 [3]: 70 nM

SMILES: COc1ccccc1NC(=O)c1cc2c(cc1OC)[C@@]1(C)CC[C@H](O)C(C)(C)[C@@H]1CC2
- IC50 [1]: 200 nM
- IC50 [2]: 1960 nM
- IC50 [3]: 30 nM
